Data reported in patent US7670604B2, “Vimentin directed diagnostics and therapeutics for multidrug resistant neoplastic disease” (Aurelium Biopharma, Inc., priority 2002, dated 2010).
Entries after “also recorded” stand apart in the source; their conditions may differ.

Legend:
[1] = tested on: hematological tumor cells; test: Vimentin vaccination of mice injected with hematological tumor cells; assay type: in vivo; settings: mice vaccinated prior to injection of the tumor cells
[2] = tested on: lysosomal hydrolases; settings: cited from earlier work
[3] = tested on: MDA cells; test: Induction of surface exposure of vimentin by drugs, intact cell radioimmunoassay; assay type: cell-based; settings: 1 or 10 μM taxol, 1 or 10 μM doxorubicin, 0.1 or 1 μM mitoxanthrone, 12 to 16 hours
[4] = Rowland et al. 1993; cited from earlier work
[5] = tested on: E3 target cells; settings: Pietersz et al. 1988; cited from earlier work
[6] = tested on: antigen-positive E3 cell line; settings: Krauer et al. 1992, read-out: IC50 (cytotoxicities); cited from earlier work

vimentin: purified full length murine vimentin protein used as vaccine antigen, may be given with adjuvant
tumor size versus mice not vaccinated [1]: smaller

COc1cccc2c1C(=O)c1c(O)c3c(c(O)c1C2=O)CC(O)(C(C)=O)CC3OC1CC(NC(=O)C(CC(C)C)NC(=O)C(C)N)C(O)C(C)O1 (stereo not drawn) [Ala-Leu-Dau derivative]
time for conversion back to the free drug [2]: 2 h

CC(=O)O[C@H]1C(=O)[C@@]2(C)[C@H]([C@H](OC(=O)c3ccccc3)[C@]3(O)C[C@H](OC(=O)[C@H](O)[C@@H](NC(=O)c4ccccc4)c4ccccc4)C(C)=C1C3(C)C)[C@]1(OC(C)=O)CO[C@@H]1C[C@@H]2O [taxol]
induction of surface exposure of vimentin [3]: slight induction

CC(=O)[C@]1(O)Cc2c(O)c3c(c(O)c2[C@@H](O[C@H]2C[C@H](N)[C@H](O)[C@H](C)O2)C1)C(=O)c1ccccc1C3=O [Ida, Idarubicin]
activities [4]: 12 nM
IC50 [5]: 120 nM

O=C1c2c(O)ccc(O)c2C(=O)c2c(NCCNCCO)ccc(NCCNCCO)c21 [mitoxanthrone]
induction of surface exposure of vimentin [3]: slight induction; also recorded: most significant effect

COc1cccc2c1C(=O)c1c(O)c3c(c(O)c1C2=O)C[C@@](O)(C(=O)CO)C[C@@H]3O[C@H]1C[C@H](N)[C@H](O)[C@H](C)O1 [doxorubicin]
induction of surface exposure of vimentin [3]: slight induction

O=c1[nH]c(=O)n([C@H]2C[C@H](O)[C@@H](CO)O2)cc1F [FUDR, 5-fluoro-2′-deoxyuridine]
IC50 [6]: 0.4 nM
